Measurements published in patent US20250152606A1, “INDUCTION OF IRREVERSIBLE INFERTILITY IN FEMALE MAMMALIAN ANIMALS USING A SINGLE PROGESTERONE IMPLANT” (THE BOARD OF TRUSTEES OF THE UNIVERSITY OF ILLINOIS, priority 2022, published 2025).
“Also recorded” adds a separate entry of the source. Where two headings read alike, the source gives them in different places.

Legend:
uterine gland = conditions: repetitive injections of neonatal ewe lambs; oviduct, cervix, vagina not inhibited; cited from earlier work
[1] = Serum P4 in neonatal rats after P4 treatment (P4-specific ELISA); type: in vivo; conditions: repeated daily injections of P4 (Oil-P4 group)
Experimental: FIG. 2. Pharmacokinetics of progesterone treatment in neonatal rats. Three-day-old rats were treated with 2.0 mg P4 Silastic capsule, (n=5-7), injected daily with 0.5 mg P4 for 7 days (n=5-9), or vehicle (n=5-9).
(§1) Experiments with Silastic capsules. Neonatal female rats (3-day-old [D3]) were divided into 3 groups for the treatment (Chart 1). The Control group was subcutaneously (sc) injected with sesame oil daily for 7-days. The Oil-P4 group was injected sc with progesterone (P4) (0.5 mg P4/50 μl oil) daily for 7-days. The sC-P4 group was implanted sc with a given single P4 Silastic capsule (sC-P4) (2 mg P4/5 μl oil in a Silastic capsule having dimensions: ID 1.02 mm, OD 2.16 mm, Length 8 mm). Sera were collected by tail clipping (n=5-7) on days 6, 10, 14 and 24, and serum P4 was measured by P4-specific ELISA kit (EIA5486, DRG International Inc., NJ). Uterine histology was examined in weeks 7 and 28. Collected uterine tissues were fixed in 4% paraformaldehyde. Tissues were washed with ethanol, processed, and embedded in paraffin wax. Paraffin-embedded tissue blocks were cut into 6 μm thick sections. For general histological observation, slides were stained with hematoxylin and eosin (HE staining). The number of uterine glands was counted from HE-stained uterine tissue sections (n=2-4). At 5-months-old, the estrous cycle was monitored for 10 days by vaginal cytology (n=2-4). […]

uterine glands = conditions: cited from earlier work
female rats = test: Fertility test with fertility-proven male rats; type: in vivo; conditions: neonatally treated rats tested at 5 months
Experimental: Neonatal P4 Silastic capsule implant induces permanent infertility. Starting at 5-months of age, the estrous cycle was determined by microscopy of vaginal smears for 10 days (Table 1). […] After the estrous cycle observation, female rats were caged with fertility-proven male rats for 1 month to evaluate fertility. Seventy-five percent (¾) of the Control untreated and Oil-P4 groups were fertile, averaging 12 and 13 pups, respectively. By comparison, none of the sC-P4 was fertile.
as §1, with “Collected uterine tissues were fixed in 4% paraformaldehyde. Tissues were washed with ethanol, processed, and embedded in paraffin wax. Paraffin-embedded tissue blocks were cut into 6 μm thick sections. For general histological observation, slides were stained with hematoxylin and eosin (HE staining).” left out

Row | SMILES | adenogenesis (uterine gland) | maximum increase in serum P4 levels compared to the Control ([1]; 6 days after the start of injections) [fold] | time serum P4 remained significantly elevated ([1]; experimental day 16) [days] | adenogenesis at PND 10 (uterine glands; mice treated with P4 during PND 3-5 or 7-9) | adenogenesis at PND 10 (uterine glands; mice treated with P4 during PND 3-9, 5-9, or 3-7) | uterine glands in adulthood (uterine glands; mice treated with P4 during PND 3-9) | uterine gland development on PND 20 (uterine glands; mice treated with P4 during PND 5-9 or 3-7) | fertility outcome (female rats)
1 | CC(=O)O[C@]1(C(C)=O)CC[C@H]2[C@@H]3CCC4=CC(=O)CC[C@@H]4[C@H]3[C@@H](C)C[C@@]21C [norgestomet] | irreversibly inhibits adenogenesis |  |  |  |  |  |  | 
2 | CC(=O)[C@H]1CC[C@H]2[C@@H]3CCC4=CC(=O)CC[C@]4(C)[C@H]3CC[C@]12C [P4, progesterone] |  | 2 | 10 | not | abolished adenogenesis | lacked glands in adulthood; also recorded: lack uterine glands in adulthood | resumption of uterine gland development | insufficient to achieve infertility
